The values that follow come from ChEMBL document CHEMBL1909046, “DrugMatrix in vitro pharmacology data”.

The nature of data set [1]: DRUGMATRIX: Calcium Channel Type L, Phenylalkylamine radioligand binding (ligand: [3H] (-)-Desmethoxyverapamil (D-888)). In kind it is cell membranes, Rattus norvegicus, Wistar, Brain, Membrane. As to conditions: Not Active = under 50% inhibition at 10 µM.
For a further data set, the target named is D(3) dopamine receptor (Homo sapiens, UniProt P35462). The experiment in a line: DRUGMATRIX: Dopamine D3 radioligand binding (ligand: [3H] Spiperone). The class given is cell membranes, CHO, Membrane.
Chain of D(3) dopamine receptor (P35462 whole entry): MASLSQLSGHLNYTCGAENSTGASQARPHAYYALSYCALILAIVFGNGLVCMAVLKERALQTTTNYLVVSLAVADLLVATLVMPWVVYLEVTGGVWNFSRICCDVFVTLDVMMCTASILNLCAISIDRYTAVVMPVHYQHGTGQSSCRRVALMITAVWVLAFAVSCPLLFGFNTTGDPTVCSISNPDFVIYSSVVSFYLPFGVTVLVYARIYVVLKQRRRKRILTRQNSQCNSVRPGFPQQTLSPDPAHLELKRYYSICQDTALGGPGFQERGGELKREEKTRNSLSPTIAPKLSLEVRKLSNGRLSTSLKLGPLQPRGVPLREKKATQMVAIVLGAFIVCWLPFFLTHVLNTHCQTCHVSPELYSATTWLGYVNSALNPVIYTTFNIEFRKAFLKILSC
Another data set addresses Cytochrome P450 2C19 (Homo sapiens, UniProt P33261). Particulars: bti-tn-5b1-4.
The next data set concerns the target Estrogen receptor beta (Homo sapiens, UniProt Q92731). Particulars: sf9. Note: in other assays of this panel Not Active means under 50% inhibition at 10 µM.
The target in a further data set is T1, Cytochrome P450 1A2 (Homo sapiens, UniProt P05177). Note: in other assays of this panel Not Active means under 50% inhibition at 10 µM.
T1 sequence (P05177 whole entry): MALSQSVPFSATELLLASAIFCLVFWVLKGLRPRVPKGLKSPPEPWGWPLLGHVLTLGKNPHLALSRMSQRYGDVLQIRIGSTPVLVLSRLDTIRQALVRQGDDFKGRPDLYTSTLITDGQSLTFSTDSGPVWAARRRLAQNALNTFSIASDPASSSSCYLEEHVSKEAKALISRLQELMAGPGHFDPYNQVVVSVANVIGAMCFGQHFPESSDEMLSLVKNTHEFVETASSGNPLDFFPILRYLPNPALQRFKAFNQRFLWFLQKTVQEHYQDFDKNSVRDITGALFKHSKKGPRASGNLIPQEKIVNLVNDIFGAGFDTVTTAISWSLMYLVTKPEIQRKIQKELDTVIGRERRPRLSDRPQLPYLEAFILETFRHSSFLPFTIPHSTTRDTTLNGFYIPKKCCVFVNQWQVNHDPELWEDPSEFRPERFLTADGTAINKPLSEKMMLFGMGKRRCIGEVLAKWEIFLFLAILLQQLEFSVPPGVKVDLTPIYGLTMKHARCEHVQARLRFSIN
As to conditions: bti-tn-5b1-4.

Data set [2] has as its target 5-hydroxytryptamine receptor 2B (Homo sapiens, UniProt P41595). In kind it is cell membranes, CHO-K1, Membrane. As to conditions: for Ki: read-out: Ki. For all read-outs here: in other assays of this panel Not Active means under 50% inhibition at 10 µM.

Chain of 5-hydroxytryptamine receptor 2B (P41595 whole entry): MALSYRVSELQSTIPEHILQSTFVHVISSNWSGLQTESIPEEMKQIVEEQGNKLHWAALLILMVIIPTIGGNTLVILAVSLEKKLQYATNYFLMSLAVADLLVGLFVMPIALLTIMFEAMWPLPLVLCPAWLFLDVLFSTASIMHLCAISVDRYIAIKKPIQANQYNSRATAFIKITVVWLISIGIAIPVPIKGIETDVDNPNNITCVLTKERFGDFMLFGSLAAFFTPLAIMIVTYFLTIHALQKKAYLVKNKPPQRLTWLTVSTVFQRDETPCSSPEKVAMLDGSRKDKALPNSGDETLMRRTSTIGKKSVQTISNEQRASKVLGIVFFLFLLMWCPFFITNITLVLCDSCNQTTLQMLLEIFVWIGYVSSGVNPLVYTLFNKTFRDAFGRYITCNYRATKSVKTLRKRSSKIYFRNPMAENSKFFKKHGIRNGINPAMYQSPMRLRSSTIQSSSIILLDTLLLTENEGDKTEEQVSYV
Chain of Cytochrome P450 2C19 (P33261 whole entry): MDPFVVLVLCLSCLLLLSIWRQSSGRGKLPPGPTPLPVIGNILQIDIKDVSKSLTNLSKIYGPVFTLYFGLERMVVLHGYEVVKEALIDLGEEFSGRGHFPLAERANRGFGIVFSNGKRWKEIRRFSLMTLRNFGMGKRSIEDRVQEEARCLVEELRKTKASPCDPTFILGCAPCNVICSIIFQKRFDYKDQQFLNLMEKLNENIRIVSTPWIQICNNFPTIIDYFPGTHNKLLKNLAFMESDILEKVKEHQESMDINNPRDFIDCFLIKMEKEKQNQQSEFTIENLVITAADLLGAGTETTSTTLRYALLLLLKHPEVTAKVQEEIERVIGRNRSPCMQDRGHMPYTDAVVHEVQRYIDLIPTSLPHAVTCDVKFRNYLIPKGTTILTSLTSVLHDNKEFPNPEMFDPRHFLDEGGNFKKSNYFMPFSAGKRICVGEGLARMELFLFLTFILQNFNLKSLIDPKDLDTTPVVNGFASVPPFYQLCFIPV
Chain of Estrogen receptor beta (Q92731 whole entry): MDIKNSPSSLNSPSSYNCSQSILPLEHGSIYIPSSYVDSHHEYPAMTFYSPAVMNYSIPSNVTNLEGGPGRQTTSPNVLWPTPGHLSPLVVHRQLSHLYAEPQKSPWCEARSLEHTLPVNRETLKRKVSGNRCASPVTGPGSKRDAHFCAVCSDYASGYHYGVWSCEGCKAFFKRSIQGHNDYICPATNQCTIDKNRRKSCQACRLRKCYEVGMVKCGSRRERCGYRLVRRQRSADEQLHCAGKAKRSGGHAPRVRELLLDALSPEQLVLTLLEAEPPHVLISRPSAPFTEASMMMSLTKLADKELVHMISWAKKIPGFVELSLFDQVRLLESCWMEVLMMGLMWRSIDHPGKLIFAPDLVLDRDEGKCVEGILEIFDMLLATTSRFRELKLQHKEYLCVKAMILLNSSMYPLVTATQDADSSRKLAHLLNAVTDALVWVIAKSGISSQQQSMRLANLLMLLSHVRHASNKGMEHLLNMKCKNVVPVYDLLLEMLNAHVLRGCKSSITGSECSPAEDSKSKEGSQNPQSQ

`CCN(CC)C(=S)SSC(=S)N(CC)CC`: the IC50 entry in data set [1] was “Not Active”; on D(3) dopamine receptor (read-out: IC50), 1080 nM; against Cytochrome P450 2C19, “Not Active”; on Estrogen receptor beta, “Not Active”. Moreover, the Ki result is “Not Active” in data set [1], 368 nM at D(3) dopamine receptor (read-out: Ki) and “Not Active” on Cytochrome P450 2C19.

For the compound `CN(C)CCC=C1c2ccccc2COc2ccccc21` [DOXEPIN], on Cytochrome P450 1A2, the IC50 entry is given as “Not Active” and the Ki entry is listed as “Not Active”. On Cytochrome P450 2C19, the IC50 result is on record as “Not Active” and the inhibition constant Ki result is “Not Active”.

As to `O=C(c1ccccc1)c1ccc2n1CCC2C(=O)O` (centres undefined) [KETOROLAC], the IC50 entry (in data set [2] (cho-k1); in data set [1]; on D(3) dopamine receptor (cho); against Cytochrome P450 1A2; on Cytochrome P450 2C19) was “Not Active” throughout. Besides, the Ki entry (in data set [1]; on Cytochrome P450 1A2; on Cytochrome P450 2C19) was “Not Active” each time.

In the case of `CC(O)C(=O)O` (centres undefined) [LACTIC ACID], the IC50 result (in data set [2] (cho-k1); in data set [1]; at D(3) dopamine receptor (cho); at Cytochrome P450 1A2; against Cytochrome P450 2C19) was “Not Active” throughout. The inhibition constant (Ki) result (in data set [1]; at Cytochrome P450 1A2; on Cytochrome P450 2C19) was “Not Active” throughout.

Take `CO[C@@H]1[C@@H](OC)[C@H](C)[C@@](O)(CC(=O)O)O[C@H]1[C@H](C)[C@H]1O[C@@]2(CC[C@@](C)([C@H]3CC[C@@](C)([C@@H]4O[C@@H]([C@H]5O[C@](C)(O)[C@H](C)C[C@@H]5C)C[C@@H]4O[C@@H]4C[C@H](OC)[C@@H](OC)[C@H](C)O4)O3)O2)C[C@H](O)[C@H]1C.N` [MADURAMICIN]: the IC50 entry (in data set [2] (cho-k1); in data set [1]; on D(3) dopamine receptor (cho); against Cytochrome P450 1A2; against Cytochrome P450 2C19) was “Not Active” in each case. Also, the Ki result (in data set [1]; at Cytochrome P450 1A2; on Cytochrome P450 2C19) was “Not Active” throughout.

In the case of `OC[C@@H](O)[C@@H](O)[C@H](O)[C@H](O)CO` [MANNITOL], the IC50 entry (in data set [2] (cho-k1); in data set [1]; on D(3) dopamine receptor (cho); against Cytochrome P450 1A2; on Cytochrome P450 2C19) was “Not Active” throughout. Also, the Ki entry (in data set [1]; at Cytochrome P450 1A2; at Cytochrome P450 2C19) was “Not Active” in each case.

For `CNCCCC12CCC(c3ccccc31)c1ccccc12` [MAPROTILINE], the IC50 result on Estrogen receptor beta is recorded as “Not Active”.

In the case of `COC(=O)Nc1nc2ccc(C(=O)c3ccccc3)cc2[nH]1` [MEBENDAZOLE], the IC50 entry (in data set [2] (cho-k1); in data set [1]; on D(3) dopamine receptor (cho); against Cytochrome P450 1A2; against Cytochrome P450 2C19) was “Not Active” each time. Also, the inhibitory constant (Ki) entry (in data set [1]; at Cytochrome P450 1A2; on Cytochrome P450 2C19) was “Not Active” each time.

As to `CC(=O)O[C@]1(C(C)=O)CC[C@H]2[C@@H]3C[C@H](C)C4=CC(=O)CC[C@]4(C)[C@H]3CC[C@@]21C` [MEDROXYPROGESTERONE ACETATE], the IC50 entry (in data set [2] (cho-k1); in data set [1]; at D(3) dopamine receptor (cho); against Cytochrome P450 1A2; against Cytochrome P450 2C19) was “Not Active” throughout. In addition, the Ki result (in data set [1]; at Cytochrome P450 1A2; at Cytochrome P450 2C19) was “Not Active” in each case.

On to `CN1C[C@H](CNC(=O)OCc2ccccc2)C[C@@H]2c3cccc4c3c(cn4C)C[C@H]21` [METERGOLINE], for which the figures for the IC50 (in data set [1] (read-out: IC50); against Cytochrome P450 1A2; against Estrogen receptor beta) were 278 nM, “Not Active” and “Not Active”, respectively. Besides, the Ki was 270 nM in data set [1] (read-out: Ki) and “Not Active” on Cytochrome P450 1A2.

For the compound `C[N+]1(C)[C@@H]2C[C@@H](OC(=O)[C@H](CO)c3ccccc3)C[C@H]1[C@@H]1O[C@@H]12.[Br-]` [METHSCOPOLAMINE BROMIDE], the IC50 entry (in data set [2] (cho-k1); in data set [1]; at D(3) dopamine receptor (cho); at Cytochrome P450 1A2; against Cytochrome P450 2C19) was “Not Active” throughout. In addition, the Ki entry (in data set [1]; on Cytochrome P450 1A2; at Cytochrome P450 2C19) was “Not Active” in each case.

Regarding `CCOc1cc(N)c(Cl)cc1C(=O)NCC1CN(Cc2ccc(F)cc2)CCO1` (centres undefined) [MOSAPRIDE], the IC50 in data set [2] (read-out: IC50) is 296 nM; in data set [1], “Not Active”; on D(3) dopamine receptor (cho), “Not Active”; against Estrogen receptor beta, “Not Active”. Moreover, the Ki in data set [2] was 188 nM; in data set [1], “Not Active”.

With `CCN(CC)N=O` [N-NITROSODIETHYLAMINE], the IC50 entry (in data set [2] (cho-k1); in data set [1]; at D(3) dopamine receptor (cho); at Cytochrome P450 1A2; against Cytochrome P450 2C19) was “Not Active” in each case. In addition, the Ki result (in data set [1]; at Cytochrome P450 1A2; at Cytochrome P450 2C19) was “Not Active” each time.

As to `Cc1cc2c(s1)Nc1ccccc1N=C2N1CCN(C)CC1` [OLANZAPINE], at Cytochrome P450 1A2, the half-inhibitory concentration (IC50) entry is reported as “Not Active” and the inhibitory constant (Ki) result is on record as “Not Active”. Moreover, at Cytochrome P450 2C19, the IC50 result is reported as “Not Active” and the Ki result was “Not Active”.

Regarding `Oc1ccc(/C=C/c2cc(O)cc(O)c2)cc1` [RESVERATROL], the IC50 result (in data set [2] (cho-k1); in data set [1]; at D(3) dopamine receptor (cho)) was “Not Active” throughout. In data set [1], the Ki result is “Not Active”.

Take `C=CCc1ccc2c(c1)OCO2` [SAFROLE]: the IC50 result (in data set [2] (cho-k1); in data set [1]; at D(3) dopamine receptor (cho); at Cytochrome P450 2C19; at Estrogen receptor beta) was “Not Active” throughout. The inhibition constant (Ki) result (in data set [1]; on Cytochrome P450 2C19) was “Not Active” throughout.

As to `CCC(C)(C)C(=O)O[C@H]1C[C@@H](C)C=C2C=C[C@H](C)[C@H](CC[C@@H]3C[C@@H](O)CC(=O)O3)[C@H]21` [SIMVASTATIN], the IC50 entry (in data set [2] (cho-k1); in data set [1]; on D(3) dopamine receptor (cho); against Estrogen receptor beta) was “Not Active” in each case. Also, the inhibition constant (Ki) result in data set [1] was “Not Active”.

For `C1CCN2C[C@@H]3C[C@@H](CN4CCCC[C@@H]34)[C@H]2C1` [SPARTEINE], the IC50 result (in data set [2] (cho-k1); in data set [1]; at D(3) dopamine receptor (cho); against Estrogen receptor beta) was “Not Active” each time. The Ki result in data set [1] was “Not Active”.

In the case of `Cc1ccnc(NS(=O)(=O)c2ccc(N)cc2)n1` [SULFAMERAZINE], the IC50 result (in data set [2] (cho-k1); in data set [1]; on D(3) dopamine receptor (cho); against Cytochrome P450 1A2; on Cytochrome P450 2C19) was “Not Active” throughout. For the same compound, the Ki entry (in data set [1]; on Cytochrome P450 1A2; at Cytochrome P450 2C19) was “Not Active” each time.

Regarding `Cc1nnc(NS(=O)(=O)c2ccc(N)cc2)s1` [SULFAMETHIZOLE], the IC50 entry (in data set [2] (cho-k1); in data set [1]; on D(3) dopamine receptor (cho); against Cytochrome P450 1A2; against Cytochrome P450 2C19) was “Not Active” throughout. For the same compound, the Ki entry (in data set [1]; on Cytochrome P450 1A2; on Cytochrome P450 2C19) was “Not Active” each time.

As for `CCN1CCCC1CNC(=O)c1cc(S(N)(=O)=O)ccc1OC` (centres undefined) [SULPIRIDE], the IC50 entry (in data set [2] (cho-k1); in data set [1]; on Cytochrome P450 1A2; on Cytochrome P450 2C19; at Estrogen receptor beta) was “Not Active” throughout. In addition, the inhibition constant (Ki) entry (in data set [1]; on Cytochrome P450 1A2; on Cytochrome P450 2C19) was “Not Active” throughout.

`O=C(OC[C@H]1O[C@@H](OC(=O)c2cc(O)c(O)c(OC(=O)c3cc(O)c(O)c(O)c3)c2)[C@H](OC(=O)c2cc(O)c(O)c(OC(=O)c3cc(O)c(O)c(O)c3)c2)[C@@H](OC(=O)c2cc(O)c(O)c(OC(=O)c3cc(O)c(O)c(O)c3)c2)[C@@H]1OC(=O)c1cc(O)c(O)c(OC(=O)c2cc(O)c(O)c(O)c2)c1)c1cc(O)c(O)c(OC(=O)c2cc(O)c(O)c(O)c2)c1` [TANNIC ACID]: the half-maximal inhibitory concentration (IC50) result (in data set [2] (cho-k1); in data set [1]; at D(3) dopamine receptor (cho); on Cytochrome P450 2C19) was “Not Active” in each case. Moreover, the Ki entry (in data set [1]; at Cytochrome P450 2C19) was “Not Active” throughout.

For the compound `Cc1ccc(S(=O)(=O)NC(=O)NN2CCCCCC2)cc1` [TOLAZAMIDE], the IC50 result (in data set [2] (cho-k1); in data set [1]; on D(3) dopamine receptor (cho); on Estrogen receptor beta) was “Not Active” in each case. Moreover, the Ki result in data set [1] is given as “Not Active”.

Regarding `CC1=C(/C=C/C(C)=C/C=C/C(C)=C/C(=O)O)C(C)(C)CCC1` [TRETINOIN], the IC50 in data set [2] (read-out: IC50) is 358 nM; in data set [1], “Not Active”; on D(3) dopamine receptor (cho), “Not Active”; on Cytochrome P450 1A2, “Not Active”; against Cytochrome P450 2C19, “Not Active”. Besides, the Ki was 228 nM in data set [2], “Not Active” in data set [1], “Not Active” at Cytochrome P450 1A2 and “Not Active” on Cytochrome P450 2C19.

With `CC(Cl)(Cl)Cl` [TRICHLOROETHANE], the IC50 result (in data set [2] (cho-k1); in data set [1]; on D(3) dopamine receptor (cho); at Cytochrome P450 1A2; against Cytochrome P450 2C19) was “Not Active” each time. Further, the Ki result (in data set [1]; at Cytochrome P450 1A2; on Cytochrome P450 2C19) was “Not Active” each time.
